Common to all, as to experiment: KINOMEscan kinase binding assay (Eurofins/DiscoveRx), % Ctrl
What all share (details): 1 μM

Assay [1] deals with T1, kinases (Homo sapiens, UniProt P00519, F317I).
T1 construct: purchased Eurofins/DiscoveRx; host or cells: E. coli BL21-derived host (T7 phage display) for most kinases; HEK-293 for the rest
The method, boiled down: (§1)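 Competition binding: DNA- or phage-tagged kinases (T7 phage in E. coli BL21, or HEK-293-expressed) with immobilized biotinylated ligand beads and test compound, 1 h at room temperature. Bead-bound kinase eluted and quantified by qPCR; % Ctrl = (compound − positive control)/(negative control − positive control) ×100 at a single compound concentration.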

Assay [2] has as its target T2, kinases (Homo sapiens, UniProt P00533, G719C).
T2 construct: purchased Eurofins/DiscoveRx; host or cells: E. coli BL21-derived host (T7 phage display) for most kinases; HEK-293 for the rest
The method, boiled down:
as §1

Assay [3] concerns the target T3, kinases (Homo sapiens, UniProt P00533, G719S).
T3 construct: purchased Eurofins/DiscoveRx; host or cells: E. coli BL21-derived host (T7 phage display) for most kinases; HEK-293 for the rest
An outline of the steps:
as §1

The target of assay [4] is T4, kinases (Homo sapiens, UniProt P07949, V804L).
T4 construct: purchased Eurofins/DiscoveRx; host or cells: E. coli BL21-derived host (T7 phage display) for most kinases; HEK-293 for the rest
T4 sequence (P07949 29-1114 V804L): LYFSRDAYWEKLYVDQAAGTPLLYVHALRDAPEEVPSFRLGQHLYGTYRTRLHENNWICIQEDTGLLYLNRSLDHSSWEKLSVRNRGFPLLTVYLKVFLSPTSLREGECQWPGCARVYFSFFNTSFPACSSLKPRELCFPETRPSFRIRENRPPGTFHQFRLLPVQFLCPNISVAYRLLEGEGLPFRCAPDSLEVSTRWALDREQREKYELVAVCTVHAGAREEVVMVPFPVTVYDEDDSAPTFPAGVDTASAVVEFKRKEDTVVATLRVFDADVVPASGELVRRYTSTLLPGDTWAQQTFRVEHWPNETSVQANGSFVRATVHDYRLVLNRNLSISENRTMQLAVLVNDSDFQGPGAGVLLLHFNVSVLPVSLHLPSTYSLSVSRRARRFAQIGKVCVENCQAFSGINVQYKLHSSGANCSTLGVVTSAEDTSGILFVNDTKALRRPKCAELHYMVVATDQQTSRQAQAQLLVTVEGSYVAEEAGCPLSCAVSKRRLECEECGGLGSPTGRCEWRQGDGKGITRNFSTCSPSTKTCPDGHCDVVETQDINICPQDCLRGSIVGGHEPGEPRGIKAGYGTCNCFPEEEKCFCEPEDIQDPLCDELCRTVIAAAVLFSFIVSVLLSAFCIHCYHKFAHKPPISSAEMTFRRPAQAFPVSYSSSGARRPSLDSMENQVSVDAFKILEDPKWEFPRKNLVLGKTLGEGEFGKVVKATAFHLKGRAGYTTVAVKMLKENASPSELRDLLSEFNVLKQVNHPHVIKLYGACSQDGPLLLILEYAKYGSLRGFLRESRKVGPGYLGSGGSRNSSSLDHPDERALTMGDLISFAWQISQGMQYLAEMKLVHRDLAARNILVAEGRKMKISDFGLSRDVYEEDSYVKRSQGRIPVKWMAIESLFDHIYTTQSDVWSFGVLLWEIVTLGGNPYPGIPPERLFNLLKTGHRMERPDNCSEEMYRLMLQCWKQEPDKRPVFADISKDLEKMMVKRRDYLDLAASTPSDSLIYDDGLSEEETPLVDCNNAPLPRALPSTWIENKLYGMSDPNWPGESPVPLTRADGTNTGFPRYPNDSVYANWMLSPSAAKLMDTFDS
The method, boiled down: as §1

Assay [5] has as its target T5, kinases (Homo sapiens, UniProt P36888, K663Q).
T5 construct: purchased Eurofins/DiscoveRx; host or cells: E. coli BL21-derived host (T7 phage display) for most kinases; HEK-293 for the rest
T5 sequence (P36888 27-993 K663Q): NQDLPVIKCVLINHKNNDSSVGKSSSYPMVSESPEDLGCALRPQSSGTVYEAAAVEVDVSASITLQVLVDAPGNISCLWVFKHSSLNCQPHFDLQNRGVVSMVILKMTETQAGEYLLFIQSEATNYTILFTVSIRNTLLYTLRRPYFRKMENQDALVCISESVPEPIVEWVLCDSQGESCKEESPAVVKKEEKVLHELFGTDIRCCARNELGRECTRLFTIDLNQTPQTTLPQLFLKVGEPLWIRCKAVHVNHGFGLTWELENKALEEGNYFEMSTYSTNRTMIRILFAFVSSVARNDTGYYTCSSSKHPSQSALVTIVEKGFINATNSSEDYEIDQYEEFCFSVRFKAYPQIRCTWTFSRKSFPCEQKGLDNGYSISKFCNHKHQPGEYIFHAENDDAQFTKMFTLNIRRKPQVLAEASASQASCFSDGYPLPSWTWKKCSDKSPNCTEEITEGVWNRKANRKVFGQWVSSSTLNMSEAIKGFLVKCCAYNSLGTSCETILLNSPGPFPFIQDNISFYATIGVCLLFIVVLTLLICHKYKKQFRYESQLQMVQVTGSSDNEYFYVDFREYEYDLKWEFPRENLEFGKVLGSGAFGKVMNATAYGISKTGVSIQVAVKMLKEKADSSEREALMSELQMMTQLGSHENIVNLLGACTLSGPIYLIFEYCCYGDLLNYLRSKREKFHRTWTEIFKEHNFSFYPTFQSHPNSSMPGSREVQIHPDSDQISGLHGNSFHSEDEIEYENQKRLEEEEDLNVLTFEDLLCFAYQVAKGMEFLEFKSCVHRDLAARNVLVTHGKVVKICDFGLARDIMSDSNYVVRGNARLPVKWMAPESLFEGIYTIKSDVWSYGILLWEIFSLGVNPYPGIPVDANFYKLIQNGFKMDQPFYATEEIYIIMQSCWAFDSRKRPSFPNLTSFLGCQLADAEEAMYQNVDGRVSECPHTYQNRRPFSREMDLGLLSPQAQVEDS
The method, boiled down: as §1

Assay [6] concerns the target T6, kinases (Homo sapiens, UniProt P36888, N841I).
T6 construct: purchased Eurofins/DiscoveRx; host or cells: E. coli BL21-derived host (T7 phage display) for most kinases; HEK-293 for the rest
T6 sequence (P36888 27-993 N841I): T5 sequence (P36888 27-993 K663Q) with Q637K, N815I
The method, boiled down:
as §1

[7] abbreviates: target ABL1(F317I)-nonphosphorylated.
Setting [8] is: target ABL1(F317I)-phosphorylated.

Substitutions are numbered along the chain they refer to.

The results in this text go back to US20230257396A1, “MACROCYCLES AND THEIR USE” (BLOSSOMHILL THERAPEUTICS, INC., priority 2020, published 2023).

T1 sequence (P00519 whole entry F317I): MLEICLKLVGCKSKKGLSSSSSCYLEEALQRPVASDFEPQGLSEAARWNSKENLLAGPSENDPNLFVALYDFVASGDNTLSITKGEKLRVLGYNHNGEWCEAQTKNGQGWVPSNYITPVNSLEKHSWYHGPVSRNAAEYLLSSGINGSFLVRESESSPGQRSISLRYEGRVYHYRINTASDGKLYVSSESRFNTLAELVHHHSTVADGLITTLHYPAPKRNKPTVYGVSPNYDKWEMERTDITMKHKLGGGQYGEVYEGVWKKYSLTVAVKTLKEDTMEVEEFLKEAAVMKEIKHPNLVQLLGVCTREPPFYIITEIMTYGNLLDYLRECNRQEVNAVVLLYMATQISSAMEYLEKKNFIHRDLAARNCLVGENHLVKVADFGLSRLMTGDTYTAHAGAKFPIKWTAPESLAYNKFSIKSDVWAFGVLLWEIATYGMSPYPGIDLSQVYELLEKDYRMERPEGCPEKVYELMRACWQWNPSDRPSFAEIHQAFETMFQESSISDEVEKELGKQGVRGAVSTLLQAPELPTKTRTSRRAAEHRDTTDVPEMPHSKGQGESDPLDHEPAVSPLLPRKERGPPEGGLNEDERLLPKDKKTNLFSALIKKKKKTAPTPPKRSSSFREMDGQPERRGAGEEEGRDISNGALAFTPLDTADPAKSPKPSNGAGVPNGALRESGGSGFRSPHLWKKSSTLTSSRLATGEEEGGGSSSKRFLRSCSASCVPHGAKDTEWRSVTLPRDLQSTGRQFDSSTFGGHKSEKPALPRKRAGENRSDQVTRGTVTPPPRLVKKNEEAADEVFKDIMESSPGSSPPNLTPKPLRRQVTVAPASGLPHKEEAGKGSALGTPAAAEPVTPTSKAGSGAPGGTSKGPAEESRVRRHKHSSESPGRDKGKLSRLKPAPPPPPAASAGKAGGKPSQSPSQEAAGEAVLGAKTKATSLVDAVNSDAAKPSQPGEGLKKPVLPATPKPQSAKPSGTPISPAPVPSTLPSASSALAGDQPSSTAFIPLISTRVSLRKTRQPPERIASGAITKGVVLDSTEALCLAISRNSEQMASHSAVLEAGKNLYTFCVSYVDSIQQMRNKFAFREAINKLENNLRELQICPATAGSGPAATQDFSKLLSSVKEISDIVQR

Take `Cc1cc2c([nH]1)/C=C1\C(=O)Nc3cc(Cl)c(cc31)OCCOCCN(C)C2=O` [Ex. 131, [16a(17)Z]-19-chloro-2,5-dimethyl-6,7,9,10-tetrahydro-1H-12,14-(ethanediylidene)dipyrrolo[3,2-i:3′,4′-l][1,4,7]dioxazacyclopentadecine-4,16(5H,15H)-dione]: in assay [1] (ABL1(F317I)-nonphosphorylated), the “% Ctrl, ABL1(F317I)-nonphosphorylated” value came out at 0 % Ctrl. In addition, in assay [1] (ABL1(F317I)-phosphorylated), the “% Ctrl, ABL1(F317I)-phosphorylated” value is listed as 3.5 % Ctrl. For the same molecule, the “% Ctrl, EGFR(G719C)” value in assay [2] (EGFR(G719C)) turned out to be 93 % Ctrl. The “% Ctrl, EGFR(G719S)” value in assay [3] (EGFR(G719S)) is given as 80 % Ctrl. For the same molecule, the “% Ctrl, RET(V804L)” value in assay [4] (RET(V804L)) was 0 % Ctrl. Besides, in assay [5] (FLT3(K663Q)), the “% Ctrl, FLT3(K663Q)” value is 7.4 % Ctrl. Besides, in assay [6] (FLT3(N841I)), the “% Ctrl, FLT3(N841I)” value was 0 % Ctrl.
In the case of `Cc1cc2c([nH]1)/C=C1\C(=O)Nc3cc(Cl)c(cc31)OCCO[C@@H](C(=O)NC1CNC1)CN(C)C2=O` [Ex. 133, [7R,16a(17)Z]-N-(azetidin-3-yl)-19-chloro-2,5-dimethyl-4,16-dioxo-4,5,6,7,9,10,15,16-octahydro-1H-12,14-(ethanediylidene)dipyrrolo[3,2-i:3′,4′-l][1,4,7]dioxazacyclopentadecine-7-carboxamide], the “% Ctrl, ABL1(F317I)-nonphosphorylated” value in assay [1] (ABL1(F317I)-nonphosphorylated) came out at 93 % Ctrl. In addition, in assay [1] (ABL1(F317I)-phosphorylated), the “% Ctrl, ABL1(F317I)-phosphorylated” value came out at 89 % Ctrl. The “% Ctrl, EGFR(G719C)” value in assay [2] (EGFR(G719C)) is 92 % Ctrl. In addition, in assay [3] (EGFR(G719S)), the “% Ctrl, EGFR(G719S)” value worked out at 99 % Ctrl. In addition, the “% Ctrl, RET(V804L)” value in assay [4] (RET(V804L)) was determined as 58 % Ctrl. In addition, the “% Ctrl, FLT3(K663Q)” value in assay [5] (FLT3(K663Q)) is 77 % Ctrl. Besides, the “% Ctrl, FLT3(N841I)” value in assay [6] (FLT3(N841I)) was found to be 19 % Ctrl.
Take `Cc1cc2c([nH]1)/C=C1\C(=O)Nc3cc(Cl)c(cc31)OCCO[C@@H](C(=O)NC1CCNCC1)CN(C)C2=O` [Ex. 134, [7R,16a(17)Z]-19-chloro-2,5-dimethyl-4,16-dioxo-N-(piperidin-4-yl)-4,5,6,7,9,10,15,16-octahydro-1H-12,14-(ethaneidylidene)dipyrrolo[3,2-i:3′,4′-l][1,4,7]dioxazacyclopentadecine-7-carboxamide]: the “% Ctrl, ABL1(F317I)-nonphosphorylated” value in assay [1] (ABL1(F317I)-nonphosphorylated) is 84 % Ctrl. In addition, the “% Ctrl, ABL1(F317I)-phosphorylated” value in assay [1] (ABL1(F317I)-phosphorylated) was determined as 70 % Ctrl. The “% Ctrl, EGFR(G719C)” value in assay [2] (EGFR(G719C)) came out at 89 % Ctrl. In addition, in assay [3] (EGFR(G719S)), the “% Ctrl, EGFR(G719S)” value is given as 92 % Ctrl. Moreover, in assay [4] (RET(V804L)), the “% Ctrl, RET(V804L)” value was 55 % Ctrl. Besides, the “% Ctrl, FLT3(K663Q)” value in assay [5] (FLT3(K663Q)) was 73 % Ctrl. In addition, in assay [6] (FLT3(N841I)), the “% Ctrl, FLT3(N841I)” value was 26 % Ctrl.
As to `CNC(=O)[C@H]1CN(C)C(=O)c2cc(C)[nH]c2/C=C2\C(=O)Nc3cc(Cl)c(cc32)OCCO1` [Ex. 135, [7R,16a(17)Z]-19-chloro-N,2,5-trimethyl-4,16-dioxo-4,5,6,7,9,10,15,16-octahydro-1H-12,14-(ethanediylidene)dipyrrolo[3,2-i:3′,4′-l][1,4,7]dioxazacyclopentadecine-7-carboxamide], in assay [1] (ABL1(F317I)-nonphosphorylated), the “% Ctrl, ABL1(F317I)-nonphosphorylated” value was found to be 96 % Ctrl. The “% Ctrl, ABL1(F317I)-phosphorylated” value in assay [1] (ABL1(F317I)-phosphorylated) is listed as 84 % Ctrl. The “% Ctrl, EGFR(G719C)” value in assay [2] (EGFR(G719C)) was 82 % Ctrl. For the same molecule, in assay [3] (EGFR(G719S)), the “% Ctrl, EGFR(G719S)” value is reported as 92 % Ctrl. Besides, in assay [4] (RET(V804L)), the “% Ctrl, RET(V804L)” value is on record as 60 % Ctrl. The “% Ctrl, FLT3(K663Q)” value in assay [5] (FLT3(K663Q)) was 66 % Ctrl. Also, the “% Ctrl, FLT3(N841I)” value in assay [6] (FLT3(N841I)) is listed as 41 % Ctrl.
As to `Cc1cc2c([nH]1)/C=C1\C(=O)Nc3cc(Cl)c(cc31)OCCO[C@@H](C(=O)N[C@@H]1CCNC1)CN(C)C2=O` [Ex. 136, [7R,16a(17)Z]-19-chloro-2,5-dimethyl-4,16-dioxo-N-[(3R)-pyrrolidin-3-yl]-4,5,6,7,9,10,15,16-octahydro-1H-12,14-(ethanediylidene)dipyrrolo[3,2-i:3′,4′-l][1,4,7]dioxazacyclopentadecine-7-carboxamide], in assay [1] (ABL1(F317I)-nonphosphorylated), the “% Ctrl, ABL1(F317I)-nonphosphorylated” value stood at 78 % Ctrl. Further, the “% Ctrl, ABL1(F317I)-phosphorylated” value in assay [1] (ABL1(F317I)-phosphorylated) is recorded as 66 % Ctrl. Moreover, the “% Ctrl, EGFR(G719C)” value in assay [2] (EGFR(G719C)) was found to be 90 % Ctrl. Besides, the “% Ctrl, EGFR(G719S)” value in assay [3] (EGFR(G719S)) stood at 92 % Ctrl. Moreover, in assay [4] (RET(V804L)), the “% Ctrl, RET(V804L)” value worked out at 50 % Ctrl. For the same molecule, in assay [5] (FLT3(K663Q)), the “% Ctrl, FLT3(K663Q)” value came to 64 % Ctrl. For the same molecule, the “% Ctrl, FLT3(N841I)” value in assay [6] (FLT3(N841I)) turned out to be 14 % Ctrl.
As to `Cc1cc2c([nH]1)/C=C1\C(=O)Nc3cc(Cl)c(cc31)OCCO[C@@H](C(=O)N(C)C)CN(C)C2=O` [Ex. 137, [7R,16a(17)Z]-19-chloro-N,N,2,5-tetramethyl-4,16-dioxo-4,5,6,7,9,10,15,16-octahydro-1H-12,14-(ethanediylidene)dipyrrolo[3,2-i:3′,4′-l][1,4,7]dioxazacyclopentadecine-7-carboxamide], the “% Ctrl, ABL1(F317I)-nonphosphorylated” value in assay [1] (ABL1(F317I)-nonphosphorylated) is 95 % Ctrl. In addition, the “% Ctrl, ABL1(F317I)-phosphorylated” value in assay [1] (ABL1(F317I)-phosphorylated) was 83 % Ctrl. Besides, the “% Ctrl, EGFR(G719C)” value in assay [2] (EGFR(G719C)) came out at 100 % Ctrl. For the same molecule, the “% Ctrl, EGFR(G719S)” value in assay [3] (EGFR(G719S)) amounted to 98 % Ctrl. For the same molecule, the “% Ctrl, RET(V804L)” value in assay [4] (RET(V804L)) stood at 37 % Ctrl. Further, the “% Ctrl, FLT3(K663Q)” value in assay [5] (FLT3(K663Q)) was found to be 69 % Ctrl. The “% Ctrl, FLT3(N841I)” value in assay [6] (FLT3(N841I)) was 49 % Ctrl.
As for `Cc1cc2c([nH]1)/C=C1\C(=O)Nc3cc(Cl)c(cc31)OCCO[C@@H](C(=O)N1CCN(C)CC1)CN(C)C2=O` [Ex. 138, [7R,16a(17)Z]-19-chloro-2,5-dimethyl-7-(4-methylpipearazine-1-carbonyl)-6,7,9,10-tetrahydro-1H-12,14-(ethanediylidene)dipyrrolo[3,2-i:3′,4′-l][1,4,7]dioxazacyclopentadecine-4,16(5H,15H)-dione], the “% Ctrl, ABL1(F317I)-nonphosphorylated” value in assay [1] (setting [7]) is given as 86 % Ctrl. In addition, the “% Ctrl, ABL1(F317I)-phosphorylated” value in assay [1] (setting [8]) stood at 100 % Ctrl. The “% Ctrl, EGFR(G719C)” value in assay [2] (target EGFR(G719C)) is 100 % Ctrl. The “% Ctrl, EGFR(G719S)” value in assay [3] (target EGFR(G719S)) is 95 % Ctrl. Also, the “% Ctrl, RET(V804L)” value in assay [4] (target RET(V804L)) is reported as 83 % Ctrl. Moreover, the “% Ctrl, FLT3(K663Q)” value in assay [5] (target FLT3(K663Q)) came out at 95 % Ctrl. Moreover, the “% Ctrl, FLT3(N841I)” value in assay [6] (target FLT3(N841I)) stood at 68 % Ctrl.
In the case of `Cc1cc2c([nH]1)/C=C1\C(=O)Nc3ccc(cc31)-c1c(noc1C)CNCCN(C)C2=O` [Ex. 139, [3a(4)Z]-6,9,16-trimethyl-10,11,12,13-tetrahydro-2H-1,17-(ethanediylidene)[1,2]oxazolo[4,3-m]dipyrrolo[3,2-f:3′,4′-i][1,4]diazacyclopentadecine-3,8(5H,9H)-dione], the “% Ctrl, ABL1(F317I)-nonphosphorylated” value in assay [1] (setting [7]) was 72 % Ctrl. The “% Ctrl, ABL1(F317I)-phosphorylated” value in assay [1] (setting [8]) worked out at 60 % Ctrl. In addition, the “% Ctrl, EGFR(G719C)” value in assay [2] (target EGFR(G719C)) is listed as 82 % Ctrl. The “% Ctrl, EGFR(G719S)” value in assay [3] (target EGFR(G719S)) came out at 84 % Ctrl. The “% Ctrl, RET(V804L)” value in assay [4] (target RET(V804L)) was 15 % Ctrl. For the same molecule, the “% Ctrl, FLT3(K663Q)” value in assay [5] (target FLT3(K663Q)) turned out to be 44 % Ctrl. For the same molecule, the “% Ctrl, FLT3(N841I)” value in assay [6] (target FLT3(N841I)) stood at 12 % Ctrl.
